Experimental data published in publication PMC7179112, “Antimicrobial, Antioxidant, and Anticancer Activities of Some Novel Isoxazole Ring Containing Chalcone and Dihydropyrazole Derivatives” (Molecules, 2020).
In brackets after ≈: the same amount, converted by molar mass.

Columns and labels:
[1] = DPPH free radical scavenging assay; conditions: antioxidant activity; average of three independent experiments
Method: The antioxidant activity of all 30 compounds was assessed using 1,1-diphenyl-2-picrylhydrazine (DPPH) free radical scavenging assay and the results are the average of three independent experiments (Table 3). Gallic acid was employed as a positive control. […] In the disubstituted series (20–25), compound 25 with substitutions at position 3 and 5 on the phenyl ring gave the highest activity of 9 µg/mL.
The purpose of this study was to evaluate the antioxidant activity of chalcones and pyrazolines using the DPPH free radical assay. The percentage of antioxidant activity (AA%) of all the compounds was assessed by the DPPH free radical assay. The measurement of the DPPH radical scavenging activity was performed according to methodology described by Brand-Williams et al. The samples were reacted with the stable DPPH radical in an ethanol solution. A 0.1 mM solution of DPPH was prepared by dissolving DPPH in methanol. Gallic acid was taken as a reference standard and different concentrations of test samples (5–100 µg/mL) and standard (1.0, 2.5, and 5.0 µg/mL) were prepared using methanol. One milliliter of 0.1 mM DPPH solution was added to 3 mL of all concentrations of test samples and standard separately. These mixtures were kept in dark for about 30 min and the absorbance was measured at 517 nm. The capability to scavenge the DPPH radical was calculated using the formula:(1) DPPH scavanged (%)= Absorbance of control−Absorbance of sample/Absorbance of control∗100 when DPPH reacted with an antioxidant compound and was reduced, the change in color (from deep violet to light yellow) was read [Absorbance (Abs)] at 517 nm after […] of reaction using a UV-VIS spectrophotometer.

[2] = system: Human Normal Cells (L02); assay: MTT assay toxicity on normal cells; format: cell-based
[3] = system: Aspergillus niger and Candida tropicalis; assay: Antifungal activity (strain not named); format: cell-based; conditions: text/figure value, strain not named
Method: (§1) The target chalcones (17–31) and pyrazolines (32–46) were tested for their antimicrobial activities by serial tube dilution method against two types of bacterial and fungal strains (Table 1 and Table 2). The bacterial strains used for the testing, including Gram-positive Staphylococcus aureus and Gram-negative Pseudomonas aeruginosa, whereas the fungal strains employed were Aspergillus niger and Candida tropicalis.
(§2) The antibacterial and antifungal activity of the novel chalcones (17 to 31) and dihydropyrazoles (32 to 46) against the selected bacterial and fungal strains was assessed by following the procedure described in our previous paper.

[4] = system: prostate cancer cell line, DU-145; assay: MTT assay anticancer activity; format: cell-based; conditions: for IC50: Homo sapiens, MTT assay, mean ± SD (n = 3); for Anticancer potency MIC: given as MIC in text/Figure 3
Method: All the 30 compounds were evaluated for their anticancer potency against the prostate cancer cell line, DU-145, employing colorimetric tetrazolium dye (MTT) assay. […] Among the disubstituted series 20–25, substitution at position 3 and 4 (compound 24) produced the best activity but was lower than the standard. […] Similar phenomena can be seen among the dihydropyrazole series.
The in vitro anticancer activity of chalcones (17 to 31) and dihydropyrazoles (32 to 46) was evaluated by the Mosmann’s MTT assay as described previously.

[5] = system: Staphylococcus aureus; assay: Antibacterial activity, serial tube dilution method; format: cell-based; conditions: for MIC: Staphylococcus aureus, Gram-positive, serial tube dilution, read-out: MIC S aureus
Method: as §1, §2

[6] = system: Pseudomonas aeruginosa; assay: as above; format: cell-based; conditions: for MIC: Pseudomonas aeruginosa, Gram-negative, serial tube dilution, read-out: MIC P aeruginosa
Method: as §1, §2

[7] = system: Aspergillus niger; assay: Antifungal activity, serial tube dilution method; format: cell-based
Method: as §1, §2

[8] = system: Candida tropicalis; assay: Antifungal activity, serial tube dilution method; format: cell-based; conditions: read-out: MIC C tropicalis
Method: as §1, §2

[9] = system: Staphylococcus aureus and Pseudomonas aeruginosa; assay: Antibacterial activity (strain not named); format: cell-based; conditions: for MIC: text/figure value, strain not named
Method: as §1, §2

Row | SMILES | DPPH assay IC50 [1] | IC50 [2] [µg/mL] | MIC [3] [µg/mL] | IC50 [4] [µg/mL] | MIC [5] [µg/mL] | MIC [6] [µg/mL] | MIC [7] [µg/mL] | MIC [8] [µg/mL] | Anticancer potency MIC [4] [µg/mL] | MIC [9] [µg/mL] | fold improvement in the antibacterial activity compared to compound 38 ([5]; first of two values, S aureus inferred from Table 2) [fold] | fold improvement in the antibacterial activity compared to compound 38 ([6]; second of two values, P aeruginosa inferred from Table 2) [fold] | fold improvement of antibacterial activity vs. 41 ([9]; 45 (MIC 8) vs. 41 (MIC 64)) [fold]
1 | COc1ccccc1C1CC(c2ccno2)=NN1C(N)=O (centres unmarked) [Compound 34] | 38 ± 2 µg/mL | > 40 | 8 (≈ 27.9 µM) | 32 ± 2 (≈ 112 µM) | 16 (≈ 55.9 µM) | 16 (≈ 55.9 µM) | 8 (≈ 27.9 µM) | 8 (≈ 27.9 µM) | – | – | – | – | –
2 | COc1cccc(C2CC(c3ccno3)=NN2C(N)=O)c1OC (centres unmarked) [Compound 35] | 32 ± 1 µg/mL | > 40 | – | 16 ± 2 (≈ 50.6 µM) | 64 (≈ 202 µM) | 64 (≈ 202 µM) | 16 (≈ 50.6 µM) | 16 (≈ 50.6 µM) | – | – | – | – | –
3 | COc1ccc(C2CC(c3ccno3)=NN2C(N)=O)c(OC)c1 (centres unmarked) [Compound 36] | 25 ± 2 µg/mL | > 40 | – | 26 ± 2 (≈ 82.2 µM) | 8 (≈ 25.3 µM) | 8 (≈ 25.3 µM) | 4 (≈ 12.6 µM) | 8 (≈ 25.3 µM) | – | – | – | – | –
4 | COc1ccc(OC)c(C2CC(c3ccno3)=NN2C(N)=O)c1 (centres unmarked) [Compound 37] | 39 ± 2 µg/mL | > 40 | – | 31 ± 2 (≈ 98 µM) | 64 (≈ 202 µM) | 32 (≈ 101 µM) | 32 (≈ 101 µM) | 32 (≈ 101 µM) | – | – | – | – | –
5 | COc1cccc(OC)c1C1CC(c2ccno2)=NN1C(N)=O (centres unmarked) [Compound 38] | 28 ± 1 µg/mL | > 40 | 2 (≈ 6.32 µM) | 20 ± 2 (≈ 63.2 µM) | 32 (≈ 101 µM) | 16 (≈ 50.6 µM) | 2 (≈ 6.32 µM) | 2 (≈ 6.32 µM) | – | – | – | – | –
6 | COc1ccc(C2CC(c3ccno3)=NN2C(N)=O)cc1OC (centres unmarked) [Compound 39] | 49 ± 1 µg/mL | > 40 | – | 4 ± 2 (≈ 12.6 µM) | 128 (≈ 405 µM) | 64 (≈ 202 µM) | 32 (≈ 101 µM) | 32 (≈ 101 µM) | 4 | – | – | – | –
7 | COc1cc(OC)cc(C2CC(c3ccno3)=NN2C(N)=O)c1 (centres unmarked) [Compound 40] | 12 ± 1 µg/mL | > 40 | – | 8 ± 2 (≈ 25.3 µM) | 256 (≈ 809 µM) | 256 (≈ 809 µM) | 64 (≈ 202 µM) | 64 (≈ 202 µM) | – | – | – | – | –
8 | COc1ccc(C2CC(c3ccno3)=NN2C(N)=O)c(OC)c1OC (centres unmarked) [Compound 41] | 8 ± 1 µg/mL | > 40 | – | 9 ± 1 (≈ 26 µM) | 64 (≈ 185 µM) | 128 (≈ 370 µM) | 64 (≈ 185 µM) | 64 (≈ 185 µM) | – | 64 (≈ 185 µM) | – | – | –
9 | COc1cc(OC)c(C2CC(c3ccno3)=NN2C(N)=O)cc1OC (centres unmarked) [Compound 42] | 10 ± 2 µg/mL | > 40 | – | 18 ± 2 (≈ 52 µM) | 32 (≈ 92.4 µM) | 16 (≈ 46.2 µM) | 16 (≈ 46.2 µM) | 16 (≈ 46.2 µM) | – | – | – | – | –
10 | COc1cc(OC)c(C2CC(c3ccno3)=NN2C(N)=O)c(OC)c1 (centres unmarked) [Compound 43] | 6 ± 1 µg/mL | > 40 | 2 (≈ 5.77 µM) | 21 ± 2 (≈ 60.6 µM) | 4 (≈ 11.5 µM) | 4 (≈ 11.5 µM) | 2 (≈ 5.77 µM) | 2 (≈ 5.77 µM) | – | 4 (≈ 11.5 µM) | 8 | 4 | –
11 | COc1cc(C2CC(c3ccno3)=NN2C(N)=O)cc(OC)c1OC (centres unmarked) [Compound 44] | 12 ± 2 µg/mL | > 40 | – | 5 ± 2 (≈ 14.4 µM) | 64 (≈ 185 µM) | 256 (≈ 739 µM) | 16 (≈ 46.2 µM) | 16 (≈ 46.2 µM) | – | – | – | – | –
12 | COc1ccc(C2CC(c3ccno3)=NN2C(N)=O)c(F)c1OC (centres unmarked) [Compound 45] | 55 ± 2 µg/mL | > 40 | – | 2 ± 1 (≈ 5.98 µM) | 8 (≈ 23.9 µM) | 8 (≈ 23.9 µM) | 0.5 (≈ 1.5 µM) | 1 (≈ 2.99 µM) | 2 | 8 (≈ 23.9 µM) | – | – | 8
13 | CC(=O)O[C@@]12CO[C@@H]1C[C@H](O)[C@@]1(C)C(=O)[C@H](O)C3=C(C)[C@@H](OC(=O)[C@H](O)[C@@H](NC(=O)OC(C)(C)C)c4ccccc4)C[C@@](O)([C@@H](OC(=O)c4ccccc4)[C@H]21)C3(C)C [Docetaxel, reference compound] | – | – | – | 5 (≈ 6.19 µM) | – | – | – | – | 5 | – | – | – | –
14 | OC(Cn1cncn1)(Cn1cncn1)c1ccc(F)cc1F [Fluconazole, reference compound] | – | – | 1 (≈ 3.27 µM) | – | – | – | 1 (≈ 3.27 µM) | 1 (≈ 3.27 µM) | – | – | – | – | –
15 | O=C(O)c1cc(O)c(O)c(O)c1 [Gallic acid, reference compound] | Gallic acid 5 ± 1 µg/mL | – | – | – | – | – | – | – | – | – | – | – | –
